Experiments:
PDE4B = molecular target: T1, PDE4B (Homo sapiens, UniProt Q07343); test: Protein degradation assay, western blot, PDE4B in A549 cells; format: cell-based; conditions: 24 h treatment, 'as high as about' = upper value for the group, read-out: PDE4B degradation relative to DMSO
T1 construct: endogenous in cells; host or cells: A549
Method: Example B2. Protein Degradation Assay
A549 cells were grown in RPMI 1640 media supplemented with 10% fetal bovine serum, streptomycin, and penicillin. The cells were plated in 6-well plates at 300,000 cells/well in the growth media. After overnight incubation, the cells were treated with DMSO (control) or a compound at predetermined concentrations (e.g., 10 nM, 100 nM, 1 μM, 3 μM, or 10 μM) for 24 h at 37° C. under 5% CO2. Whole cell extracts were prepared using an immunoprecipitation (IP) lysis buffer. The cells were washed once in PBS, and the cell pellets were resuspended in the IP lysis buffer and incubated for 15 min on ice. Cells debris was removed by centrifugation and the cleared whole cell lysates were transferred to new tubes for further analysis.
For a western blot analysis, the whole cell protein extracts were separated on 4-12% SDS-polyacrylamide gels, transferred to nitrocellulose, and probed with primary antibodies. Membranes were subsequently washed and probed with IRDYE® secondary antibodies. The signals were detected using an ODYSSEY® Imaging System. The antibodies used in the assay included anti-PDE4B antibody; anti-PDE4D antibodies (top, bottom, and short isoform); β-actin mouse monoclonal antibody; IRDYE® 680RD goat anti-rabbit antibody; and IRDYE® 800CW goat anti-mouse antibody. The compounds provided herein are PDE4 protein degraders.

TNF-α = test: Cell-based TNF-α inhibition assay (LPS-induced PBMCs, Meso Scale); conditions: PBMC, PBMCs pretreated 1 h, LPS 100 ng/mL 18-24 h, percentage of stimulated DMSO control; for inhibition at 0.1 µM: compound concentration 0.1 μM; for inhibition at 1 µM: compound concentration 1 μM
How it was run: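 Thawed primary PBMCs (200,000 cells/well, RPMI 1640 with 10% FBS) were pretreated with compound for 1 h, then stimulated with 100 ng/mL LPS for 18–24 h. Supernatant TNF-α was measured by Meso Scale, and activity was expressed as percent inhibition relative to the stimulated DMSO control.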

T1 sequence (Q07343 whole entry): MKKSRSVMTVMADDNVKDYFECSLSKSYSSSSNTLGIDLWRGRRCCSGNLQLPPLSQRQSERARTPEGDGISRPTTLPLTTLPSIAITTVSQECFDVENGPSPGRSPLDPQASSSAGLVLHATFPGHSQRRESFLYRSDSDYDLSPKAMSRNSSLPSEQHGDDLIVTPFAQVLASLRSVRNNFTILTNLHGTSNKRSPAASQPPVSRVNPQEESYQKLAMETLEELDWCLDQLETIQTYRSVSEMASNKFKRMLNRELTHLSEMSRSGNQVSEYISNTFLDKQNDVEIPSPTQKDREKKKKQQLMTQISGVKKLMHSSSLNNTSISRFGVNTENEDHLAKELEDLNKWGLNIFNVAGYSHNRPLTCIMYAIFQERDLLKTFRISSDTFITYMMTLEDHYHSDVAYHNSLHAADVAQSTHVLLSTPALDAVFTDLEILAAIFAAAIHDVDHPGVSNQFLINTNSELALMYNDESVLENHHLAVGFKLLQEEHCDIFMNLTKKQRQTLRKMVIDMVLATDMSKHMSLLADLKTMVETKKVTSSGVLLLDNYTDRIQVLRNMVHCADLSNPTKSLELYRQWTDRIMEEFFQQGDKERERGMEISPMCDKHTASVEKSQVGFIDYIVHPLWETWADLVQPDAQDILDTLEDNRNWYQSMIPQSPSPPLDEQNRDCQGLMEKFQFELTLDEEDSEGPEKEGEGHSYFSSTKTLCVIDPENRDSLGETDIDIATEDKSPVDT

| Dmax (PDE4B) [%] | SMILES | inhibition at 0.1 µM (TNF-α) [%] | inhibition at 1 µM (TNF-α) [%] |
| --- | --- | --- | --- |
| ≤ 70 | CCOc1cc([C@@H](CS(C)(=O)=O)N2C(=O)c3cccc(NC(=O)CCCCCCCCNCc4ccc(OCc5scc6c5CN(C5CCC(=O)NC5=O)C6=O)cc4)c3C2=O)ccc1OC (stereo partly drawn) [Compound A12, 9-((4-((5-(2,6-Dioxopiperidin-3-yl)-4-oxo-5,6-dihydro-4H-thieno[3,4-c]pyrrol-1-yl)methoxy)benzyl)amino)-N-(2-((S)-1-(3-ethoxy-4-methoxyphenyl)-2-(methylsulfonyl)ethyl)-1,3-dioxoisoindolin-4-yl)nonanamide] | – | – |
| ≤ 70 | CCOc1cc([C@@H](CS(C)(=O)=O)N2C(=O)c3cc(CCCCCCCCCCCCN4CCC(c5cc(F)cc6c5CN(C5CCC(=O)NC5=O)C6=O)CC4)cc(NC(C)=O)c3C2=O)ccc1OC (stereo partly drawn) [Compound A14, N-(6-(12-(4-(2-(2,6-Dioxopiperidin-3-yl)-6-fluoro-1-oxoisoindolin-4-yl)piperidin-1-yl)dodecyl)-2-((S)-1-(3-ethoxy-4-methoxyphenyl)-2-(methylsulfonyl)ethyl)-1,3-dioxoisoindolin-4-yl)acetamide] | – | – |
| ≤ 70 | O=C1CCC(N2Cc3cc(C4CCN(CCCCCCCOc5cc(C(=O)Nc6c(Cl)cncc6Cl)ccc5OC(F)F)CC4)c(F)cc3C2=O)C(=O)N1 (stereo not shown) [Compound B3, N-(3,5-Dichloropyridin-4-yl)-4-(difluoromethoxy)-3-((7-(4-(2-(2,6-dioxopiperidin-3-yl)-6-fluoro-1-oxoisoindolin-5-yl)piperidin-1-yl)heptyl)oxy)benzamide] | – | – |
| ≤ 70 | CCOc1cc([C@@H](CS(C)(=O)=O)N2C(=O)c3cccc(NC(=O)CCCCCCCCC(=O)N[C@H](C(=O)N4C[C@H](O)C[C@H]4C(=O)NCc4ccc(-c5scnc5C)cc4)C(C)(C)C)c3C2=O)ccc1OC [Compound A60, N^1-(2-((S)-1-(3-Ethoxy-4-methoxyphenyl)-2-(methylsulfonyl)ethyl)-1,3-dioxoisoindolin-4-yl)-N^10—((S)-1-((2S,4R)-4-hydroxy-2-((4-(4-methylthiazol-5-yl)benzyl)-carbamoyl)pyrrolidin-1-yl)-3,3-dimethyl-1-oxobutan-2-yl)decanediamide] | – | – |
| ≤ 70 | O=C1CCC(N2Cc3c(C#CC4CCN(C(=O)CCCCOc5cc(C(=O)Nc6c(Cl)cncc6Cl)ccc5OC(F)F)CC4)cccc3C2=O)C(=O)N1 (stereo not shown) [Compound B2, N-(3,5-Dichloropyridin-4-yl)-4-(difluoromethoxy)-3-((5-(4-((2-(2,6-dioxopiperidin-3-yl)-1-oxoisoindolin-4-yl)ethynyl)piperidin-1-yl)-5-oxopentyl)oxy)benzamide] | – | – |
| ≤ 70 | Cc1ncsc1-c1ccc(CNC(=O)[C@@H]2C[C@@H](O)CN2C(=O)[C@@H](NC(=O)CCCCCCCCCCOc2cc(C(=O)Nc3c(Cl)cncc3Cl)ccc2OC(F)F)C(C)(C)C)cc1 [Compound B21, (2S,4R)-1-((S)-2-(11-(5-((3,5-dichloropyridin-4-yl)carbamoyl)-2-(difluoromethoxy)phenoxy)undecanamido)-3,3-dimethylbutanoyl)-4-hydroxy-N-(4-(4-methyl-thiazol-5-yl)benzyl)pyrrolidine-2-carboxamide] | – | – |
| ≤ 70 | Cc1ncsc1-c1ccc(CNC(=O)[C@@H]2C[C@@H](O)CN2C(=O)[C@@H](NC(=O)CCCCCCCCOc2cc(C(=O)Nc3c(Cl)cncc3Cl)ccc2OC(F)F)C(C)(C)C)cc1 [Compound B20, (2S,4R)-1-((S)-2-(9-(5-((3,5-Dichloropyridin-4-yl)carbamoyl)-2-(difluoromethoxy)phenoxy)nonanamido)-3,3-dimethylbutanoyl)-4-hydroxy-N-(4-(4-methylthiazol-5-yl)benzyl)pyrrolidine-2-carboxamide] | – | – |
| ≤ 70 | O=C1CCC(N2C(=O)c3cccc(NCCCCCCCOc4cc(C(=O)Nc5c(Cl)cncc5Cl)ccc4OC(F)F)c3C2=O)C(=O)N1 (stereo not shown) [Compound B6, N-(3,5-Dichloropyridin-4-yl)-4-(difluoromethoxy)-3-((7-((2-(2,6-dioxopiperidin-3-yl)-1,3-dioxoisoindolin-4-yl)amino)heptyl)oxy)benzamide] | – | – |
| ≤ 70 | CCOc1cc([C@@H](CS(C)(=O)=O)N2C(=O)c3cccc(NC(=O)CCCCCCCCCCCNc4cccc5c4C(=O)N(C4CCC(=O)NC4=O)C5=O)c3C2=O)ccc1OC (stereo partly drawn) [Compound A6, 12-((2-(2,6-Dioxopiperidin-3-yl)-1,3-dioxoisoindolin-4-yl)amino)-N-(2-((S)-1-(3-ethoxy-4-methoxyphenyl)-2-(methylsulfonyl)ethyl)-1,3-dioxoisoindolin-4-yl)dodecanamide] | – | – |
| – | CCOc1cc([C@@H](CS(C)(=O)=O)N2C(=O)c3cccc(NC(=O)CCCCCCC4CN(Cc5ccc(OCc6scc7c6CN(C6CCC(=O)NC6=O)C7=O)cc5)CCO4)c3C2=O)ccc1OC (stereo partly shown) [Compound A47] | ≥ 60 | ≥ 60 |
| – | CCOc1cc([C@@H](CS(C)(=O)=O)N2C(=O)c3cc(CCCCCCCCCCCCNc4cccc(NC5CCC(=O)NC5=O)c4)cc(N)c3C2=O)ccc1OC (stereo partly drawn) [Compound A90, 4-Amino-6-[12-({3-[(2,6-dioxopiperidin-3-yl)amino]phenyl}amino)dodecyl]-2-[(1S)-1-(3-ethoxy-4-methoxyphenyl)-2-methanesulfonylethyl]-2,3-dihydro-1H-isoindole-1,3-dione] | ≥ 60 | ≥ 60 |
| – | CCOc1cc([C@@H](CS(C)(=O)=O)N2C(=O)c3cccc(NC(=O)CCCCCCCCNCc4ccc(COc5cccc6c5CN(C5CCC(=O)NC5=O)C6=O)cc4)c3C2=O)ccc1OC (stereo partly drawn) [Compound A16, 9-({[4-({[2-(2,6-Dioxopiperidin-3-yl)-1-oxo-2,3-dihydro-1H-isoindol-4-yl]oxy}-methyl)phenyl]methyl}amino)-N-{2-[(1S)-1-(3-ethoxy-4-methoxyphenyl)-2-methanesulfonylethyl]-1,3-dioxo-2,3-dihydro-1H-isoindol-4-yl}nonanamide] | ≥ 60 | ≥ 60 |
| – | CCOc1cc([C@@H](CS(C)(=O)=O)N2C(=O)c3cc(CCCCCCCCCCCCNc4cccc(NC5CCC(=O)NC5=O)c4)cc(NC(C)=O)c3C2=O)ccc1OC (stereo partly drawn) [Compound A89, N-{6-[12-({3-[(2,6-Dioxopiperidin-3-yl)amino]phenyl}amino)dodecyl]-2-[(1S)-1-(3-ethoxy-4-methoxyphenyl)-2-methanesulfonylethyl]-1,3-dioxo-2,3-dihydro-1H-isoindol-4-yl}acetamide] | ≥ 60 | ≥ 60 |
| – | CCOc1cc([C@@H](CS(C)(=O)=O)N2C(=O)c3cccc(NC(=O)CCCCCCCCOc4cc(-c5scnc5C)ccc4CNC(=O)[C@@H]4C[C@@H](O)CN4C(=O)[C@@H](NC(C)=O)C(C)(C)C)c3C2=O)ccc1OC [Compound A74, (2S,4R)-1-[(2S)-2-Acetamido-3,3-dimethylbutanoyl]-N-[(2-{[8-({2-[(1S)-1-(3-ethoxy-4-methoxyphenyl)-2-methanesulfonylethyl]-1,3-dioxo-2,3-dihydro-1H-isoindol-4-yl}-carbamoyl)octyl]oxy}-4-(4-methyl-1,3-thiazol-5-yl)phenyl)methyl]-4-hydroxypyrrolidine-2-carboxamide] | ≥ 60 | ≥ 60 |
| – | CCOc1cc([C@@H](CS(C)(=O)=O)N2C(=O)c3cccc(NC(=O)CCCCCN4CCN(CC(=O)Nc5ccc6c(C7CCC(=O)NC7=O)nn(C)c6c5)CC4)c3C2=O)ccc1OC (stereo partly drawn) [Compound A78, 6-[4-({[3-(2,6-Dioxopiperidin-3-yl)-1-methyl-1H-indazol-6-yl]carbamoyl}-methyl)piperazin-1-yl]-N-{2-[(1S)-1-(3-ethoxy-4-methoxyphenyl)-2-methanesulfonylethyl]-1,3-dioxo-2,3-dihydro-1H-isoindol-4-yl}hexanamide] | ≥ 60 | ≥ 60 |
| – | CCOc1cc([C@@H](CS(C)(=O)=O)N2C(=O)c3cccc(NC(=O)CCCCCCCCCN4CCN(CC(=O)Nc5cccc(C6CCC(=O)NC6=O)c5)CC4)c3C2=O)ccc1OC (stereo partly drawn) [Compound A88, 10-[4-({[3-(2,6-Dioxopiperidin-3-yl)phenyl]carbamoyl}methyl)piperazin-1-yl]-N-{2-[(1S)-1-(3-ethoxy-4-methoxyphenyl)-2-methanesulfonylethyl]-1,3-dioxo-2,3-dihydro-1H-isoindol-4-yl}decanamide] | ≥ 60 | ≥ 60 |
| – | CCOc1cc([C@@H](CS(C)(=O)=O)N2C(=O)c3cccc(NC(=O)CCCCCCCCCCN(C)Cc4ccc(OCc5scc6c5CN(C5CCC(=O)NC5=O)C6=O)cc4)c3C2=O)ccc1OC (stereo partly drawn) [Compound A46, 11-{[(4-{[5-(2,6-Dioxopiperidin-3-yl)-4-oxo-4H,5H,6H-thieno[3,4-c]pyrrol-1-yl]methoxy}phenyl)methyl](methyl)amino}-N-{2-[(1S)-1-(3-ethoxy-4-methoxyphenyl)-2-methanesulfonylethyl]-1,3-dioxo-2,3-dihydro-1H-isoindol-4-yl}undecanamide] | ≥ 60 | ≥ 60 |

From US20240124418A1 (BioTheryX, Inc., priority 2020, published 2024)
